Assay results published in ChEMBL document CHEMBL1201862, “PubChem BioAssay data set” (2004).
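Five compound concentrations were applied to cells in 96-well plates for 48 hours; endpoints were derived by simple linear interpolation of the resulting dose-response curve. GI50: concentration for 50% inhibition of growth.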 The source made the active and inactive calls. Rule as the data show it: active = GI50 up to about 1.1 µM and inactive = higher.

Columns and labels:
Assay in all cases: inhibition of tumour cell growth, NCI panel, 48 h
HT-29 = system: HT-29
SW-620 = system: SW-620
SK-OV-3 = system: SK-OV-3
NCI/ADR-RES = system: NCI/ADR-RES
HCT-116 = system: HCT-116
SNB-75 = system: SNB-75
KM12 = system: KM12
RXF 393 = system: RXF 393
NCI-H460 = system: NCI-H460
M14 = system: M14
RPMI-8226 = system: RPMI-8226
OVCAR-8 = system: OVCAR-8
Malme-3M = system: Malme-3M
MCF7 = system: MCF7
UO-31 = system: UO-31
SK-MEL-5 = system: SK-MEL-5
SK-MEL-2 = system: SK-MEL-2
HOP-62 = system: HOP-62
NCI-H23 = system: NCI-H23
IGROV-1 = system: IGROV-1

Measured: GI50

Cc1ccc(S(=O)(=O)NC(=O)NC(Cc2ccccc2)C(=O)O)cc1 (stereo not given)
inactive: HT-29 > 100 µM | SW-620 > 100 µM | SK-OV-3 > 100 µM | NCI/ADR-RES > 100 µM | HCT-116 > 100 µM | SNB-75 > 100 µM | KM12 > 100 µM | RXF 393 > 100 µM | NCI-H460 > 100 µM | M14 > 100 µM | RPMI-8226 > 100 µM | OVCAR-8 > 100 µM | Malme-3M > 100 µM | MCF7 > 100 µM | UO-31 > 100 µM | SK-MEL-5 > 100 µM | SK-MEL-2 > 100 µM | HOP-62 > 100 µM | NCI-H23 > 100 µM | IGROV-1 > 100 µM

C[C@@H](CC(O)C(O)C(C)(C)O)C1CCC23CC12CCC1[C@@]2(C)CCC(O)C(C)(C)C2CC(OC2OC(CO)C(O)C(O)C2O)[C@]13C (stereo not given in full)
inactive: HT-29 > 10 µM | SW-620 > 10 µM | SK-OV-3 > 10 µM | NCI/ADR-RES > 10 µM | HCT-116 > 10 µM | SNB-75 > 10 µM | KM12 > 10 µM | RXF 393 > 10 µM | NCI-H460 > 10 µM | M14 > 10 µM | RPMI-8226 > 10 µM | OVCAR-8 > 10 µM | Malme-3M > 10 µM | MCF7 > 10 µM | UO-31 > 10 µM | SK-MEL-5 > 10 µM | SK-MEL-2 > 10 µM | HOP-62 > 10 µM | NCI-H23 > 10 µM | IGROV-1 > 10 µM
